{
  "source": "patent US20230310388A1",
  "about": "“Methods and Compositions for Treating Fungal Infections” (Neoculi Pty Ltd, priority 2020, published 2023)",
  "note": "Values joined by “and” are separate entries in the source; they are usually repeats but may differ in a detail not shown here. Identical values can stand only once.",
  "data": [
    {"test_system": "Candida albicans ATCC14053", "assay": "Broth micro-dilution screen at 16 μg/mL and MIC (Example 9)", "type": "cell-based", "conditions": "C. albicans ATCC14053; test range 0.25-64 μg/mL; duplicate", "procedure": "(§1) The antifungal activity of 201 NCL analogs against Candida albicans ATCC14053 in vitro was investigated. A broth micro-dilution method was used, according to CLSI guidelines as described. NCL analogs were dissolved in DMSO and originally screened at a single concentration of 16 μg/mL.", "values": [
      {"smiles": "Cl.N=C(NN=Cc1ccc(OC(F)(F)F)cc1)NN=Cc1ccc(OC(F)(F)F)cc1", "note": "[NCL160]", "MIC": "1 µg/mL and 2 µg/mL"}
    ]},
    {"test_system": "Candida albicans ATCC14053", "assay": "Broth micro-dilution screen at 16 μg/mL and MIC (Example 9)", "type": "cell-based", "conditions": "single concentration 16 μg/mL; Growth or No growth of C. albicans ATCC14053", "procedure": "as §1", "values": [
      {"smiles": "CCCCC(=NNC(=N)NN=C(CCCC)c1ccc(Cl)cc1)c1ccc(Cl)cc1.Cl", "note": "[NCL154]", "Screen at 16 μg/mL": "Growth"},
      {"smiles": "CC(=NNC(=N)NN=C(C)c1ccc(Br)cc1)c1ccc(Br)cc1.Cl", "note": "[NCL155]", "Screen at 16 μg/mL": "Growth"},
      {"smiles": "CCCC(=NNC(=N)NN=C(CCC)c1ccc(Cl)cc1)c1ccc(Cl)cc1.Cl", "note": "[NCL156]", "Screen at 16 μg/mL": "Growth"},
      {"smiles": "Cl.N=C(NN=Cc1ccc(OC(F)(F)F)cc1)NN=Cc1ccc(OC(F)(F)F)cc1", "note": "[NCL160]", "Screen at 16 μg/mL": "No growth"},
      {"smiles": "CCO/C(N)=N/N=C(\\C)c1ccc(Cl)cc1", "note": "[NCL162]", "Screen at 16 μg/mL": "Growth"},
      {"smiles": "Cl.N=C(NN=C1C(=O)Nc2ccccc21)NN=C1C(=O)Nc2ccccc21", "note": "[NCL163]", "Screen at 16 μg/mL": "Growth"},
      {"smiles": "Cl.N=C(NN=Cc1ccc(SC(F)(F)F)cc1)NN=Cc1ccc(SC(F)(F)F)cc1", "note": "[NCL166]", "Screen at 16 μg/mL": "Growth"},
      {"smiles": "Cl.N=C(NN=C(C(=O)O)c1ccccc1)NN=C(C(=O)O)c1ccccc1", "note": "[NCL167]", "Screen at 16 μg/mL": "Growth"},
      {"smiles": "CC(=O)Nc1cc(Cl)ccc1C=NNC(=N)NN=Cc1ccc(Cl)cc1NC(C)=O", "note": "[NCL170]", "Screen at 16 μg/mL": "Growth"},
      {"smiles": "CC(=NNC(=N)NN=C(C)c1ccccn1)c1ccccn1.Cl", "note": "[NCL172]", "Screen at 16 μg/mL": "Growth"},
      {"smiles": "Cl.N=C(NN=Cc1cnccc1Cl)NN=Cc1cnccc1Cl", "note": "[NCL175]", "Screen at 16 μg/mL": "Growth"},
      {"smiles": "Cl.N=C(NN=C(CO)c1ccc(Cl)cc1)NN=C(CO)c1ccc(Cl)cc1", "note": "[NCL177]", "Screen at 16 μg/mL": "Growth"},
      {"smiles": "CC(=NNc1cc(NN=C(C)c2ccc(Cl)cc2)ncn1)c1ccc(Cl)cc1", "note": "[NCL178]", "Screen at 16 μg/mL": "Growth"},
      {"smiles": "Nc1nc(NN=Cc2ccc(Cl)cc2)cc(NN=Cc2ccc(Cl)cc2)n1", "note": "[NCL179]", "Screen at 16 μg/mL": "Growth"},
      {"smiles": "CC(Nc1cc(NC(C)c2ccccc2)nc(N)n1)c1ccccc1", "note": "(stereo not drawn) [NCL184]", "Screen at 16 μg/mL": "Growth"},
      {"smiles": "CC(=NNc1cc(NN=C(C)c2ccc(Cl)cc2)ncn1)c1ccc(Cl)cc1.Cl", "note": "[NCL185]", "Screen at 16 μg/mL": "Growth"},
      {"smiles": "Cl.Clc1ccc(/C=N/Nc2cc(N/N=C/c3ccc(Cl)cc3)ncn2)cc1", "note": "[NCL187]", "Screen at 16 μg/mL": "Growth"},
      {"smiles": "CCCCC(=NNC(=N)N)c1ccc(Cl)cc1.Cl", "note": "[NCL188]", "Screen at 16 μg/mL": "Growth"},
      {"smiles": "Cl.OCC(=NNc1cc(NN=C(CO)c2ccc(Cl)cc2)ncn1)c1ccc(Cl)cc1", "note": "[NCL189]", "Screen at 16 μg/mL": "Growth"},
      {"smiles": "Cl.N=C(N)NN=C(CNN)c1ccc(Cl)cc1", "note": "[NCL190]", "Screen at 16 μg/mL": "Growth"},
      {"smiles": "Cl.N=C(N)N/N=C(\\C(=O)O)c1ccccc1", "note": "[NCL192]", "Screen at 16 μg/mL": "Growth"},
      {"smiles": "Nc1nc(NN=Cc2ccc(Br)cc2)cc(NN=Cc2ccc(Br)cc2)n1", "note": "[NCL193]", "Screen at 16 μg/mL": "Growth"},
      {"smiles": "Nc1nc(NN=Cc2ccc(O)cc2)cc(NN=Cc2ccc(O)cc2)n1", "note": "[NCL196]", "Screen at 16 μg/mL": "Growth"},
      {"smiles": "Nc1nc(NN=Cc2cccc(O)c2)cc(NN=Cc2cccc(O)c2)n1", "note": "[NCL197]", "Screen at 16 μg/mL": "Growth"},
      {"smiles": "CC(C)(C)c1ccc(C=NNc2cc(NN=Cc3ccc(C(C)(C)C)cc3)nc(N)n2)cc1.Cl.Cl", "note": "[NCL198]", "Screen at 16 μg/mL": "Growth"},
      {"smiles": "Nc1nc(NN=Cc2ccccc2)cc(NN=Cc2ccccc2)n1", "note": "[NCL199]", "Screen at 16 μg/mL": "Growth"},
      {"smiles": "CN(C)c1ccc(C=NNc2cc(NN=Cc3ccc(N(C)C)cc3)nc(N)n2)cc1", "note": "[NCL201]", "Screen at 16 μg/mL": "Growth"},
      {"smiles": "Nc1nc(NN=Cc2ccccc2O)cc(NN=Cc2ccccc2O)n1", "note": "[NCL202]", "Screen at 16 μg/mL": "Growth"},
      {"smiles": "Cl.Cl.Nc1nc(NN=CC2CCCCC2)cc(NN=CC2CCCCC2)n1", "note": "[NCL203]", "Screen at 16 μg/mL": "Growth"},
      {"smiles": "CC(=NNc1cc(NN=C(C)c2ccc(Cl)cc2)nc(N)n1)c1ccc(Cl)cc1", "note": "[NCL204]", "Screen at 16 μg/mL": "Growth"},
      {"smiles": "Nc1nc(NN=Cc2ccccc2Cl)cc(NN=Cc2ccccc2Cl)n1", "note": "[NCL205]", "Screen at 16 μg/mL": "Growth"},
      {"smiles": "Cc1ccc(C=NNc2nc(N)nc(NN=Cc3ccc(C)cc3)n2)cc1", "note": "[NCL206]", "Screen at 16 μg/mL": "Growth"},
      {"smiles": "Nc1nc(NN=Cc2ccccc2O)nc(NN=Cc2ccccc2O)n1", "note": "[NCL207]", "Screen at 16 μg/mL": "Growth"},
      {"smiles": "CC(=NNc1nc(N)nc(NN=C(C)c2ccc(Cl)cc2)n1)c1ccc(Cl)cc1", "note": "[NCL208]", "Screen at 16 μg/mL": "Growth"},
      {"smiles": "Nc1nc(NN=Cc2ccc(O)cc2)nc(NN=Cc2ccc(O)cc2)n1", "note": "[NCL211]", "Screen at 16 μg/mL": "Growth"}
    ]}
  ]
}
